In patent US20040058980A1, “Useful aroyl pyrrole heteroaryl methanones and methanols” (priority 2001, published 2004):
Counter-ions that a name gives are not always drawn. Marks after values point to notes of the source that are not given here.

Legend:
toxic extensor seizure = experiment: Mouse maximal electroshock test (MES), anticonvulsant model; assay type: in vivo; settings: for MES Response, number of mice protected/number of mice tested: oral, 300 mpk
Experimental: Procedure for Testing in Mouse Anticonvulsant Model
The activity of the present compounds as anticonvulsant agents was determined using a standard mouse “maximal electroshock test” (MES). In this test, activity was indicated by a block of the […] extensor seizure, as described by Swinyard, et al. (J. Pharmacol. Exptl. Therap., 1952, 106, 319). A more recent description of current anticonvulsant drug screening is given in Swinyard, et al., in Epilepsia, 1978, 19, 409.
The anticonvulsant activity of the instant compounds is shown in Table 5 and was evaluated according to the Swinyard (1952) method. The abbreviations used in the table have the following meanings: mpk refers to the dose orally administered in “mg per Kg;” and, ED50 refers to the “50% Effective Dose” orally administered in mpk. The values marked by an * represent the number of mice protected/number of mice tested; therefore, a value of 3/3 represents that the number of mice protected matched the number of mice tested at the indicated dose.

mechanical allodynia = experiment: Chung Model (spinal nerve ligation), mechanical allodynia with von Frey hairs; assay type: in vivo; design: key to Chung Model result in words (IA): IA: inactive at the screening dose; settings: rat; for ED50 in the Chung Model: orally administered; for Chung Model result in words (IA) / % MPE (Maximum Possible Effect) in the Chung Model: oral, screening dose (not given)
Description: Procedure for Testing Antiallodynic Effect
The procedure used to detect the antiallodynic effect of a compound of the present invention for which there is a good correlation with human efficacy for the treatment of pain is the procedure for the measurement of allodynia found in the Chung Model (Kim S. H. and Chung J. M., An Experimental Model for Peripheral Neuropathy Produced by Segmental Spinal Nerve Ligation in the Rat, Pain, 1992, 50, 355-363). The antiallodynic effect of the composition of the present invention in the Chung Model is expressed in % MPE (Maximum Possible Effect).
Male Sprague-Dawley rats, weighing approximately 200 g each were anesthetized with isoflurane. The spinal nerve at the level of L5 was exposed through an incision just left of the dorsal midline and tightly ligated with 6-0 silk. At various times after surgery, animals were tested for mechanical allodynia with von Frey hairs (monofilaments which are calibrated to bend under a certain amount of pressure, ranging from 0.41 to 15.1 g). In order to calculate a paw withdrawal threshold (PWT), tactile allodynia was measured by recording the pressure at which the affected paw was withdrawn from graded stimuli according to the procedure of S. R. Chaplan, J. W. Pogrel, T. L. Yaksh, Role of Voltage-Dependent Calcium Channel Subtypes in Experimental Tactile Allodynia, J. Pharmacol. Exp. Ther., 1994, 269, 1117-1123. Normal rats can withstand at least 15 g of pressure without responding. Operated rats, however, can respond to as little as 0.25 g of pressure. The surgery was deemed successful if the animal responded with a PWT of less than 4 g of pressure applied to the affected paw. […] The PWT was used to calculate the % maximal possible effect (% MPE) according to the formula:
% MPE=100×[(PWT−CT)/(CO−CT)];
wherein PWT is defined as Paw Withdrawal Threshold, CT is Control Threshold, and CO is Cut Off (defined as 15 g).
The sham operation consisted of a similar surgery; the spinal nerve was visualized without being ligated.
Compounds selected from Formula (I) and Formula (II) were tested for activity in treating or modulating neuropathic pain by being dissolved or suspended in either water or hydroxypropyl methylcellulose, respectively. […] were fasted overnight prior to dosing. Animals were orally dosed and dosage volumes were calculated on a 4 mL/kg basis.

[1] = system: voltage-gated sodium channels; experiment: [14C]guanidinium flux assay, veratridine-stimulated SK-N-SH cells; assay type: cell-based; settings: 100 μM compound, 100 μM veratridine
Experimental: Screening Assay for Voltage-Gated Sodium Channel Antagonists
[^14C] Guanidinium Flux Assay
SK-N-SH neuroblastoma cells were maintained in a propagation medium containing modified Eagle's medium and 10% (v/v) fetal bovine serum and were incubated at 37° C. in a 5% CO2 atmosphere. Only cells with fewer than 20 passages were used in each assay. All drugs were prepared in DMSO, and the final concentration of solvent was less than 0.1% (v/v). Veratridine, a toxin that selectively promotes persistent activation of voltage-gated sodium channels, served as the stimulus.
SK-N—SH cells were plated at 1×10^5 cells/well in 96-well Cytostar-T microscintillating plates in propagation medium and experiments were performed 6-7 days after plating. Prior to assay, the SK-N-SH cells were washed twice with assay buffer containing 50 mM HEPES (pH 7.45), 5.4 mM potassium chloride, 0.8 mM magnesium chloride, 130 mM choline chloride, 5.5 mM glucose and 0.1 mg/mL bovine serum albumin. Next, the plates were allowed to equilibrate for 10 min at 37° C. in assay buffer. […] The 96-well dosing plate was prepared by mixing 25 μL of a drug/assay buffer solution per well with 25 μL of 0.7 μCi/mL [^14C]guanidine hydrochloride in assay buffer. […] The plates were incubated for 1 hr at room temperature and the radioactivity was counted in a 1450 Microbeta scintillation counter. […]

Structure (SMILES)	melting point	also measured
Cn1cc(C(=O)c2ccncc2)cc1C(=O)c1ccccc1 [Cpd 2, (5-Benzoyl-1-methyl-1H-pyrrol-3-yl) pyridin-4-ylmethanone]	127 to 129 °C	
Cn1cc(C(=O)c2ccc(F)cc2)cc1C(=O)c1ccccn1 [Cpd 10, (4-Fluorophenyl)-[1-methyl-5-(pyridine-2-carbonyl)-1H-pyrrol-3-yl]methanone]	159 to 161 °C	MES Response, number of mice protected/number of mice tested (toxic extensor seizure): 0/1* @ 300 mpk
Cn1cc(C(=O)c2ccncc2)cc1C(=O)c1ccc(Cl)cc1 [Cpd 1, [5-(4-Chlorobenzoyl)-1-methyl-1H-pyrrol-3-yl]pyridin-4-ylmethanone]	174 to 175 °C	ED50 in the Chung Model (mechanical allodynia): ED50 = 22 mpk; MES Response ED50 (toxic extensor seizure; orally administered): ED50 = 156.97 mpk
Cc1c(C(O)c2ccncc2)c(C)n(C)c1C(=O)c1ccc(Cl)cc1 (stereo not drawn) (as salt: hydrochloride) [Cpd 18, (4-Chlorophenyl)-[4-(hydroxypyridin-4-yl-methyl)-1,3,5-trimethyl-1H-pyrrol-2-yl]methanone]	174 to 176 °C	
Cl.Cn1cc(C(=O)c2ccncc2)cc1C(=O)c1cccs1 [Cpd 4, [1-Methyl-5-(thiophene-2-carbonyl)-1H-pyrrol-3-yl]pyridin-4-ylmethanone Hydrochloride]	243 to 245 °C	Chung Model result in words (IA) (mechanical allodynia): IA; MES Response, number of mice protected/number of mice tested (toxic extensor seizure): 0/1* @ 300 mpk
Cl.Cn1cc(C(=O)c2cccnc2)cc1C(=O)c1ccc(Cl)cc1.Cn1cc(C(=O)c2cccnc2)cc1C(=O)c1ccc(Cl)cc1.O [Cpd 5, [5-(4-Chlorobenzoyl)-1-methyl-1H-pyrrol-3-yl]pyridin-3-ylmethanone Hydrochoride Hydrate [2:1:1]]		% MPE (Maximum Possible Effect) in the Chung Model (mechanical allodynia): 9%
Cn1cc(C(=O)c2cc[n+]([O-])cc2)cc1C(=O)c1ccc(Cl)cc1 [Cpd 15, (4-Chlorophenyl)-[1-methyl-4-(1-oxypyridine-4-carbonyl)-1H-pyrrol-2-yl]methanone]		% MPE (Maximum Possible Effect) in the Chung Model (mechanical allodynia): 7.9%
Cn1cc(C(=O)c2cnc[nH]2)cc1C(=O)c1ccc(Cl)cc1 [Cpd 13, (4-Chlorophenyl)-[4-(3H-imidazole-4-carbonyl)-1-methyl-1H-pyrrol-2-yl]methanone]	198 to 200 °C	Chung Model result in words (IA) (mechanical allodynia): IA
Cn1cc(C(=O)c2ccnc(Cl)c2)cc1C(=O)c1ccc(Cl)cc1 [Cpd 19, (4-Chlorophenyl)-[4-(2-chloropyridine-4-carbonyl)-1-methyl-1H-pyrrol-2-yl]methanone]	182 to 184 °C	
Cn1cc(C(=O)c2ccc3ccccc3c2)cc1C(=O)c1cccnc1 [Cpd 8, [1-Methyl-5-(pyridine-3-carbonyl)-1H-pyrrol-3-yl]naphthalen-2-yl-methanone]	132 to 133 °C	MES Response, number of mice protected/number of mice tested (toxic extensor seizure): 0/1* @ 300 mpk
Cl.Cn1cc(C(=O)c2ccc(F)cc2)cc1C(=O)c1cccnc1 [Cpd 7, (4-Fluorophenyl)-[1-methyl-5-(pyridine-3-carbonyl)-1H-pyrrol-3-yl]methanone Hydrochloride]	220 to 223 °C	ED50 in the Chung Model (mechanical allodynia): ED50 = 22 mpk
Cn1cc(C(O)c2ccncc2)cc1C(=O)c1ccc(Cl)cc1 (stereo not drawn) [Cpd 12, (4-Chlorophenyl)-[4-(hydroxypyridin-4-yl-methyl)-1-methyl-1H-pyrrol-2-yl]-methanone]	145 to 146 °C	% GFI (% guanidinium flux inhibition) @ 100 μM [1]: 4 @ 100%
Cn1cc(C(=O)c2ccc(F)cc2)cc1C(=O)c1ccncc1 [Cpd 11, (4-Fluorophenyl)-[1-methyl-5-(pyridine-4-carbonyl)-1H-pyrrol-3-yl]methanone]	155 to 157 °C	MES Response, number of mice protected/number of mice tested (toxic extensor seizure): 0/1* @ 300 mpk
Cn1cc(C(=O)c2ccccn2)cc1C(=O)c1ccc(Cl)cc1 [Cpd 6, [5-(4-Chlorobenzoyl)-1-methyl-1H-pyrrol-3-yl]pyridin-2-yl-methanone]	138 to 139 °C	
Cn1cc(C(=O)c2ccc(Cl)cc2)cc1C(=O)c1ccc(Cl)nc1 [Cpd 9, (4-Chlorophenyl)-[5-(6-chloropyridine-3-carbonyl)-1-methyl-1H-pyrrol-3-yl]methanone]	150 to 152 °C	
Cc1ccc(C(=O)c2cc(C(=O)c3ccncc3)cn2C)cc1.Cl [Cpd 3, [1-Methyl-5-(4-methyl benzoyl)-1H-pyrrol-3-yl]pyridin-4-ylmethanone Hydrochloride]	134 to 136 °C	
Cc1c(C(=O)c2ccc(F)cc2)c(C)n(C)c1C(=O)c1cccnc1 [Cpd 17, (4-Fluorophenyl)-[1,2,4-trimethyl-5-(pyridine-3-carbonyl)-1H-pyrrol-3-yl]methanone]	85 to 88 °C	
